Results reported in publication PMC9886266, “New [1,2,4]triazolo[4,3-c]quinazolines as intercalative Topo II inhibitors: Design, synthesis, biological evaluation, and in silico studies” (PLOS ONE, 2023).

Assays:
[1] = biological target: T1, Topoisomerase II (Topo II) (Homo sapiens, UniProt P11388); test: In vitro Topo II inhibitory assay (TopoGEN Topo II drug screening kit); format: biochemical
T1 construct: purchased TopoGEN, Inc., Columbus
Procedure: The reported method described by Patra et al was applied using Topo II drug screening kit (TopoGEN, Inc., Columbus).
A typical enzyme reaction was structured to determine Topo II activity. The reaction mixture included Topo II (2 μl), substrate super coiled pHot1 DNA (0.25 μg), 50 μg/ml test compound (2 μl), and assay buffer (4 μl). To start the reaction, the mixture was allowed to incubate in 37°C for 30 min. To terminate the reaction, a mixture of 10% sodium dodecylsulphate (2 μl) and proteinase K (50 μg/mL) was added at 37°C for 15 min. then incubated for 15 min at 37°C.
(§1) After that, the DNA was run on 1% agarose gel in BioRad gel electrophoresis system for 1–2 h followed by staining with GelRedTM stain for 2 h and destained for 15 min with TAE buffer. The gel was imaged via BioRad’s Gel DocTMEZ system. Both supercoiled and linear strands DNA were incorporated in the gel as markers for DNA-Topo II intercalators. The results of IC50 values were calculated using the GraphPad Prism version 7. Each reaction was performed in duplicate, and at least three independent determinations of each IC50 were made. […]
S2.2. Measurement of topoisomerase II Activity […]
analyzed for their Topo II inhibitory activities. The reported method described by Patra et al was applied using Topo II drug screening kit (TopoGEN, Inc., Columbus).
A typical enzyme reaction was structured to determine Topo II activity. The reaction mixture included Topo II (2 µl), substrate super coiled pHot1 DNA (0.25 µg), 50 µg/ml test compound (2 µl), and assay buffer (4 µl). To start the reaction, the mixture was allowed to incubate in 37 °C for 30 min. To terminate the reaction, a mixture of 10% sodium dodecylsulphate (2 µl) and proteinase K (50 µg/mL) was added at 37 °C for 15 min. then incubated for 15 min at 37 °C.
as §1

Vero cells = test: In vitro cytotoxicity against normal cell line; format: cell-based
Description: Although Vero cell are not human cell, it was reported that Vero cells can be used as normal cells to validate the toxicity of the synthesized compounds [43].

HCT-116 cells = test: Flow cytometry cell cycle analysis (propidium iodide); format: cell-based, human; conditions: HCT-116, 2.44 μM, 48 h, mean ± SEM
[2] = biological target: Topo II α and supercoiled pBR322 DNA (Homo sapiens, UniProt P11388); test: Topo II-mediated DNA cleavage assay; format: biochemical
Procedure: The Topo II inhibitors may act through two pathways. Firstly, it can stabilize the Topo II-DNA covalent complexes leading to the formation of linear DNA (Topo II poisons). Secondly, it can block the catalytic site of Topo II (Topo II catalytic inhibitors).
Topo II-mediated DNA cleavage assay was carried out according the reported method by Huang et al. as follows.
Topo II α (10 U), supercoiled pBR322 DNA (0.2 μg) and compound 16 at concentration of 5 and 10 μM were added in Topo II buffer ([…], pH 8.0, 150 mM NaCl, 10 mM MgCl2 2mM ATP, 0.5mM dithiothreitol, and 30 μg/mL BSA) of 20 μL volume. After incubating for 6 min at 37°C and then respectively adding 2 μL of 10% SDS, 2 μL of 250mM NaEDTA, pH 8.0, 2 μL of 0.8 mg/mL Proteinase K. Following reactions were incubated for another 30 min at 45°C. Samples were mixed with 4 μL of 6×loading buffer, heated at 70°C for 2 min and subjected to electrophoresis in a 1% agarose gel in 1×TAE buffer (30 mL) with 1 μL Gel Red. Finally, DNA bands were visualized by using UV light, photographed by using Alpha Innotech digital imaging system.
After that, the DNA was run on 1% agarose gel in BioRad gel electrophoresis system for 1–2 h followed by staining with GelRedTM stain for 2 h and destained for 15 min with TAE buffer. The gel was imaged via BioRad’s Gel DocTMEZ system. Both supercoiled and linear strands DNA were incorporated in the gel as markers for DNA-Topo II intercalators. The results of IC50 values were calculated using the GraphPad Prism version 7. Each reaction was performed in duplicate, and at least three independent determinations of each IC50 were made.
S2.3. DNA/Methyl Green Assay […]
methyl green dye method described by Burres et al. Activated Calf Thymus DNA (Merk, Germany) was treated with methyl green (Merk, Germany), then the synthesized compounds were applied to displace the methyl green dye, producing equivalent color. The results were reported […]
S2.4. Topo II-mediated DNA cleavage assay […]

Chain of Topo II α and supercoiled pBR322 DNA (P11388 whole entry): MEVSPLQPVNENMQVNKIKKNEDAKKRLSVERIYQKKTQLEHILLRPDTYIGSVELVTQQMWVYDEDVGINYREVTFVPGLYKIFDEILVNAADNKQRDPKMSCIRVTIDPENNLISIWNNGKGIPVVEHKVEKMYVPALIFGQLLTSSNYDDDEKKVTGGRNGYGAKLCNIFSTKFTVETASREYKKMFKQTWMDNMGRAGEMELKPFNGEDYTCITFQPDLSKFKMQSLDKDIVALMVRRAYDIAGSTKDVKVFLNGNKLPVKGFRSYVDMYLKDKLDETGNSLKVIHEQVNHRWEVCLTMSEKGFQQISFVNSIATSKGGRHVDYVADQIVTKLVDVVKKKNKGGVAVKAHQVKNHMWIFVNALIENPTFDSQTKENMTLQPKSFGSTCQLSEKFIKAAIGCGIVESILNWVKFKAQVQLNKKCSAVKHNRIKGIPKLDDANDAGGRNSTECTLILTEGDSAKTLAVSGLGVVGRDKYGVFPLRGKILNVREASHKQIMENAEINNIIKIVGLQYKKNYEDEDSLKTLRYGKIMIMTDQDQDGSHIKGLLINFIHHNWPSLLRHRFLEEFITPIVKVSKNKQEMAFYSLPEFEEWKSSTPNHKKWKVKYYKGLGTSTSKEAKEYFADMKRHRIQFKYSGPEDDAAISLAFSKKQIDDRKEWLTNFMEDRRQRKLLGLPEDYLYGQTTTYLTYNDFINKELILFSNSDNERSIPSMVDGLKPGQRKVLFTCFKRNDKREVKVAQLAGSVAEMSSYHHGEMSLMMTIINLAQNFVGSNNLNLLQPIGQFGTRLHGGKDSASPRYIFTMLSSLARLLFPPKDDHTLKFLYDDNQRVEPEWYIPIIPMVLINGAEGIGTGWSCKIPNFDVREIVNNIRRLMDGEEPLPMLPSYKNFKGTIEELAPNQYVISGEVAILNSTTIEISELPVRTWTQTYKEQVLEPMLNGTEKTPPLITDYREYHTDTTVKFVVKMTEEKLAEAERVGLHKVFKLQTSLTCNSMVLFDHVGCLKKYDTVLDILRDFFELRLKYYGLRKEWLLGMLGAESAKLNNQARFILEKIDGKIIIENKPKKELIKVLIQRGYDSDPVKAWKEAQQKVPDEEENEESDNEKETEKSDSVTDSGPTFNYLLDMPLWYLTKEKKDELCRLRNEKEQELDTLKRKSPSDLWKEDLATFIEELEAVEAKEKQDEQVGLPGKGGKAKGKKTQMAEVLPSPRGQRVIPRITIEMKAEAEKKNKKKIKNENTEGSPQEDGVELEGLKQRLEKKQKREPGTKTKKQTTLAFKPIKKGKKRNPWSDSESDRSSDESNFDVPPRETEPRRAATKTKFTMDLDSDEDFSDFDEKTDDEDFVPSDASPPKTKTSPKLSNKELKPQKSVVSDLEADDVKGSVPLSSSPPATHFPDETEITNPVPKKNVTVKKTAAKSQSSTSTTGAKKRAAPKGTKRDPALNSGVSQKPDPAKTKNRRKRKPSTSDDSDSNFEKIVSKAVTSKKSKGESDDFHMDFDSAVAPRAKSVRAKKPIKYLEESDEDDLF
T1 sequence (P11388 whole entry): as above

For `CCCNc1nc2ccccc2c2nnc(C(F)(F)F)n12` [Compound 16, N-Propyl-3-(trifluoromethyl)-[1,2,4]triazolo[4,3-c]quinazolin-5-amine], which IC50 [1] is on record?
The IC50 was 15.2 ± 0.9 µM.

What about the IC50 (Vero cells; Chlorocebus sabaeus, Vero) of the same compound?
The IC50 was 63.4 µM.

And the “Selectivity: activity against HCT-116 compared with normal Vero cells” value (Vero cells; Vero vs HCT-116)?
The value was 26 fold.

And the “Selectivity: activity against HepG2 compared with normal Vero cells” value (Vero cells; Vero vs HepG2)?
Its value is 10 fold.

What about the “Toxicity to Vero cells less than that of sorafenib” value (Vero cells; compared with sorafenib) of the same compound?
Its value is “about 2.5 fold”.

And the “Cell cycle distribution % G2/M” value (HCT-116 cells)?
The value was 36.89 ± 1.81 %.

What about the “Cell cycle distribution %G1” value (HCT-116 cells) of the same compound?
Its value is 19.05 ± 1.38 %.

And the “Cell cycle distribution %S” value (HCT-116 cells)?
The value was 42.76 ± 2.48 %.

What about the “Cell cycle distribution %Sub-G1” value (HCT-116 cells) of the same compound?
Its value is 1.30 ± 0.18%.

What about the “Effect on relaxation of supercoiled DNA by Topo II” value ([2]; 5 μM) of the same compound?
Its value is “induced relaxation for the DNA”.

What about the “Effect on relaxation of supercoiled DNA by Topo II” value ([2]; 10 μM) of the same compound?
Its value is “blocked the formation of relaxed DNA”.

And the “Formation of linear DNA” value ([2]; all concentrations (5 and 10 μM))?
Its value is “the linear DNA was not formed”.
